The text below walks through data of EP1356819A1, “Use of proteasome/ubiquitination inhibitors and/or MMP inhibitors alone or in combination with a growth hormone for treating /preventing catabolic conditions” (Universitair Medisch Centrum Utrecht, priority 2002, dated 2003).

One assay deals with GHR. Put plainly: Western blotting of GHR species (mature and precursor) in cell lysates after drug treatment. Type of assay: cell-based, rabbit. The method, then: Cell lines and plasmids. Chinese hamster lung cells, ts20, bearing a thermolabile ubiquitin-activating enzyme E1, and E36 control cells were stably transfected with a pCB6 construct containing the full length rabbit GHR cDNA sequence.
Antibodies and materials. […] Inhibitors were dissolved in dimethylsulfoxide (DMSO).
Cell lysis, immunoprecipitation, and western blotting. Cells (in 6-cm dishes) were lysed on ice in 1.0 mL of lysis buffer containing 1% Triton X-100, 1 mM EDTA in PBS, with 50 mM NaF, 1 mM Na3VO4, 10 µg/ml aprotinin, 10 µg/ml leupeptin, and 1 mM PMSF. Cell lysates were subjected to SDS-polyacrylamide gel electrophoresis using a precast ready gel system (BioRad, Veenendaal, The Netherlands) and transferred to polyvinylidenedifluoride (PVDF) paper.
• Fig. 1. Effect of various drugs on GHR species. Cells were treated for 3 h as follows: lane 1, vehicle; lane 2, MG132 (10 µM); lane 3, Tapi-I (10 µM); lane 4, MG132 (10 µM) and Tapi-I (10 µM); lane 5, cycloheximide (0.1 mM); m, mature; p, precursor GHR. […] Quantification of receptors at the cell surface. […] The number GHRs were calculated and expressed as a percentage of untreated cells. • Fig. 3. Effect of metalloprotease inhibitors on the release of GH binding protein.
(Immunoblotting shows a protein as a band on a membrane.)

Assay [1] concerns GH binding protein (GHBP). Put plainly: Release of GH binding protein into the growth medium, Western blotting with Mab5 antibody. Type of assay: cell-based, rabbit. The conditions noted are these: 1 µM; growth medium after 150 min at 30°C (Fig. 3). The protocol:
Cell lines and plasmids. Chinese hamster lung cells, ts20, bearing a thermolabile ubiquitin-activating enzyme E1, and E36 control cells were stably transfected with a pCB6 construct containing the full length rabbit GHR cDNA sequence. The newly established cell lines were grown at 30°C in MEMα supplemented with 10% FCS, 4.5 g/l glucose, 100 U/ml penicillin, 100 µg/ml streptomycin and 0.45 mg/ml geneticin (van Kerkhof et al., 2002). Sixteen hours before the start of the experiment, 10 mM butyrate was added to increase the expression of the GHR (van Kerkhof et al., 2002).
Cell lysis, immunoprecipitation, and western blotting. […] Cell lysates were subjected to SDS-polyacrylamide gel electrophoresis using a precast ready gel system (BioRad, Veenendaal, The Netherlands) and transferred to polyvinylidenedifluoride (PVDF) paper. The blots were immunostained using the polyclonal GHR antibodies anti-T or anti-B or the monoclonal antibody mAb5 followed by peroxidase conjugated protein A or rabbit anti-mouse IgG (Pierce Chemical Co.) as described previously (van Kerkhof et al. 2002), and detected by enhanced chemiluminescence (Roche Molecular Biochemicals).
• Fig. 1. […] Quantification of receptors at the cell surface. […] The number GHRs were calculated and expressed as a percentage of untreated cells. • Fig. 3. […]

Setting [2] is: Chinese hamster lung cells transfected with rabbit GHR, treated for 3 h, MG132 10 µM, Tapi-I 10 µM, cycloheximide 0.1 mM, compared with vehicle control (Fig. 1).

Where two headings read alike, the source gives them in different places. Where a SMILES comes first, the peptide text is derived from it. The star is where a group is joined. Cbz = O=C(OCc1ccccc1)*

Turning to `C[C@@H]1C[C@@H]([C@H](O)CC2CC(=O)NC(=O)C2)C(=O)[C@@H](C)C1` [cycloheximide], in the assay with GHR, the “amount of precursor GHR” value is on record as “virtually disappeared” and the “steady state amount of mature GHR” value is reported as “virtually disappeared”.
For `CNC(=O)[C@H](Cc1c[nH]c2ccccc12)NC(=O)[C@@H](CC(=O)NO)CC(C)C` [GM6001], the “inhibition of shedding of GHBP” value in assay [1] was “almost completely inhibited”.
Take `CC(C)C[C@@H](C=O)NC(=O)[C@H](CC(C)C)NC(=O)[C@H](CC(C)C)NC(=O)OCc1ccccc1` [MG132, carbobenzoxy-L-leucyl-L-leucyl-L-leucinal] (Cbz-Leu-Leu-Leu-aldehyde): in the assay with GHR (setting [2]), the “amount of precursor GHR” value is reported as “remained constant” and the “steady state amount of mature GHR” value is given as “decreased”.
In the case of `CC(C)C[C@H](CC(=O)NO)C(=O)N[C@@H](Cc1ccc2ccccc2c1)C(=O)N[C@@H](C)C(=O)NCCN` [Tapi-I], the “inhibition of shedding of GHBP” value in assay [1] is “almost completely inhibited”. Further, in the assay with GHR (setting [2]), the “amount of precursor GHR” value is recorded as “unchanged” and the “steady state amount of mature GHR” value is given as “slight increase”.
